# Experimental data reported in patent publication US20050074879A1, “Antisense oligonucleotide modulation of STAT3 expression” (priority 2000, published 2005).
# Oligonucleotides are written 5' to 3', each unit as a sugar letter and its base; * is a phosphorothioate linkage, no mark a phosphodiester; rarer units and linkages stand in square brackets, end groups in braces. Plain capitals give the bases only. e = 2'-O-(2-methoxyethyl) (MOE); [5mC] = 5-methylcytosine; d = 2'-deoxy (DNA)
# Legend:
# Human STAT3 mRNA [1] = test: Human STAT3 mRNA dose response in T-24 cells, real-time PCR with PPS 2033 (Table 19); format: cell-based; conditions: 16 hours, − decrease, + increase relative to untreated control
# Procedure, shortened: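 T-24 cells got oligonucleotide at 18.75, 37.5, 75 or 150 nM with LIPOFECTIN (3 ug/mL per 100 nM oligo) for 16 h. STAT3 mRNA was quantified by real-time RT-PCR with primer-probe set PPS 2033, normalized to RiboGreen total RNA, and expressed as change versus untreated cells.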
# Human STAT3 mRNA [2] = test: Human STAT3 mRNA dose response in A549 cells, real-time PCR with PPS 199 (Table 20); format: cell-based; conditions: 16 hours, LIPOFECTIN, − decrease, + increase relative to untreated control cells
# Procedure: An additional dose-response experiment was preformed in A549 cells. A549 cells were treated with 18.75, 37.5, 75, or 150 nM of oligonucleotide mixed with 3 ug/mL LIPOFECTIN per 100 nM oligonucleotide as described by other examples herein. Control oligonucleotides used were ISIS 129686 (SEQ ID NO: 394) and ISIS 129690 (SEQ ID NO: 393). Untreated cells served as controls. Following 16 hours of treatment, RNA was prepared from cells for subsequent real-time PCR analysis.
# Human STAT3 mRNA expression levels were quantitated by real-time PCR using primer probe set PPS 199 and gene target quantities were normalized using Ribogreen as described in other examples herein. A “−” or “+” designation in the dose response results indicates a decrease or increase of STAT 3 mRNA expression, respectively, relative to untreated control cells.
# Human STAT3 mRNA [3] = test: Human STAT3 mRNA dose response in T-24 cells, real-time PCR with PPS 199 (Table 18); format: cell-based; conditions: 16 hours, − decrease, + increase relative to untreated control
# Procedure, shortened: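 Bladder carcinoma T-24 cells transfected with oligonucleotide at 18.75, 37.5, 75 or 150 nM plus 3 ug/mL LIPOFECTIN per 100 nM, 16 h. STAT3 mRNA quantified by real-time PCR (PPS 199), normalized with Ribogreen; change given relative to untreated cells.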
# BCL1 cells = test: BCL1 cell proliferation, [3H]-thymidine incorporation; format: cell-based, mouse; conditions: BCL1 cells; for % Cell Proliferation: 48 hours after electroporation
# Procedure: The effect of ISIS 17152 (SEQ ID NO. 99) on BCL1 proliferation was determined. BCL1 cells contain constitutively active STAT3 which is thought to be responsible for their proliferation. BCL1 cells were grown, treated and processed as described in Example 2.
# 1×10^5 BCL1 cells were incubated in 96-well plates in […] complete RPMI following electroporation. Cultures were pulsed with […] of [^3H]-thymidine for the last 8 hours of culture and cells were harvested and analyzed for thymidine incorporation as described in Francis, D. A. et al. (Int. Immunol., 1995, 7, 151-161) 48 hours after electroporation.
# Mouse STAT3 protein = test: STAT3 protein levels in BCL1 cells by Western blot, dose response; format: cell-based
# Procedure: ISIS 17152 (SEQ ID. NO. 99) was chosen for further study. The effect of this oligonucleotide on protein levels was determined by Western blot. ISIS 23177 (SEQ ID NO. 106), a 3 base mismatch, was used as a control. BCL1 cells were grown, treated and processed as described in Example 2.
# Nuclear extracts from primary B cells and B lymphoma cell lines were prepared as described in Karras, J. G., et al. (J. Exp. Med., 1997, 185, 1035-1042).
# Western blotting was performed as described in Karras, J. G. et al. (J. Immunol., 1996, 157, 2299). STAT1 and STAT3 antibodies were obtained from UBI (Lake Placid, N.Y.).
# [4] = system: IgM secretion by BCL1 cells; test: BCL1 IgM secretion, ELISA; format: cell-based, mouse
# Procedure: The effect of ISIS 17152 (SEQ ID. NO. 99) on IgM secretion levels was determined. STAT3 has been implicated in regulation of IgM expression (Faris, M., et al., Immunology, 1997, 90, 350-357). BCL1 cells were grown, treated and processed as described in Example 2.
# 1×10^6 BCL1 cells were incubated in 12-well plates in 2 mL complete RPMI following electroporation. Supernatant was replaced at 24 hour post electroporation with fresh medium. 48 hours later, supernatants were harvested, centrifuged to remove cells, and assayed for IgM content using the OPT-EIA™ ELISA kit (Pharmingen, San Diego, Calif.) and capture and detecting antibodies for mouse IgM (Southern Biotechnology, Birmingham, Ala.).
# Human STAT3 mRNA [5] = test: STAT3 mRNA in A549 cells treated with dsRNAs (duplex antisense compounds), real-time PCR PPS 199 (Table 22); format: cell-based; conditions: treated 4 hours, harvested 16 hours later, − decrease, + increase vs untreated control
# Procedure: When cells reached 80% confluency, they are treated with duplexed antisense compounds of the invention. For cells grown in 96-well plates, wells are washed once with […] OPTI-MEM-1 reduced-serum medium (Gibco BRL) and then treated with 130 μL of OPTI-MEM-1 containing 12 μg/mL LIPOFECTIN (Gibco BRL) and the desired duplex antisense compound at a final concentration of 200 nM (a ratio of 6 μg/mL LIPOFECTIN per 100 nM duplex antisense compound). After 5 hours of treatment, the medium is replaced with fresh medium. Cells are harvested 16 hours after treatment, at which time RNA is isolated and target reduction measured by RT-PCR.
# The compounds in Table 21 were tested for their effects on human STAT3 expression in A549 cells. ISIS 330249 targets the same site as the antisense oligonucleotid ISIS 106734 (SEQ ID NO: 45) and ISIS 330247 targets the same site as the antisense oligonucleotide ISIS 113176 (SEQ ID NO: 115); thus, ISIS 106734 and ISIS 113176 were also tested. A549 cells were treated with oligonucleotide mixed with LIPOFECTIN (Invitrogen Corporation, Carlsbad, Calif.) as described herein. The control oligonucleotide used was ISIS 129698 ([…], SEQ ID NO: 402). Cells were treated with oligonucleotide for 4 hours and harvested an additional 16 hours later. Untreated cells served as a control.
# Human STAT3 mRNA expression levels were quantitated by real-time PCR using primer probe set PPS 199 and gene target quantities were normalized using Ribogreen as described in other examples herein. A “−” or “+” designation indicates a decrease or increase of STAT 3 mRNA expression, respectively, relative to untreated control cells. Where present, “N.D.” indicates not determined.
# Mouse B16 melanoma cells = test: Cell number of B16 melanoma cells after antisense treatment; format: cell-based; conditions: 24 hours after transfection
# Procedure: Mouse B16 melanoma cells were grown in RPMI 1640 (Life Technologies, Inc., Grand Island, N.Y.) medium supplemented with 10% fetal bovine serum, 2 mM L-glutamine, 1 mM sodium pyruvate, 1% MEM nonessential amino acids and 100 IU/ml penicillin/streptomycin.
# Cells were treated with ISIS 17152, targeted to mouse STAT3, or the 3-base mismatch control, ISIS 28084 ([…]; SEQ ID NO: 151). Cells were transfected with oligonucleotide using LipofectAMINE PLUSJ reagent (GibcoBRL). Oligonucleotide was pre-complexed with LipofectAMINE PLUSJ by adding the oligonucleotide to 100 μl serum-free RPMI 1640 medium, then 6 μl LipofectAMINE PLUSJ reagent was added, the sample was mixed well and incubated for 15 minutes at room temperature. An additional 4 μl of LipofectAMINE PLUSJ reagent was diluted to 100 μl in serum-free RPMI. This diluted LipofectAMINE PLUSJ was mixed with the pre-complexed oligonucleotide/LipofectAMINE PLUSJ mixture and incubated for 15 minutes at room temperature. 800 μl of serum-free RPMI 1640 was added, and the resulting oligonucleotide-LipofectAMINE PLUSJ-medium mixture (approximately 1 ml) was added to cells in a 6-well plate. After 3 hours incubation, 1 ml of RPMI 1640 supplemened with 20% fetal bovine serum was added. Oligonucleotide concentrations were 200 nM or 300 nM.
# 24 hours after transfection, cells were counted to determine the effect of antisense treatment on cell death. Cells were harvested at 24 hours post transfection for western blot analysis and at 48 hours post-transfection for Annexin-V staining for apoptosis.
substance,measurement,setting,value
"129690 (antisense TTAGAATACGTCGCGTTATG; all phosphorothioate, sugars by position and methylation of C not given here; 2'-MOE wings and deoxy gap) [compound 129690]",Percent change of STAT3 expression using PPS 2033,Human STAT3 mRNA [1]; 18.75 nM oligonucleotide,+4%
same,Percent change of STAT3 expression using PPS 2033,Human STAT3 mRNA [1]; 37.5 nM oligonucleotide,+10%
same,Percent change of STAT3 expression using PPS 2033,Human STAT3 mRNA [1]; 75 nM oligonucleotide,+8%
same,Percent change of STAT3 expression using PPS 2033,Human STAT3 mRNA [1]; 150 nM oligonucleotide,+11%
same,Percent change of STAT3 expression in A549 cells using PPS 199,Human STAT3 mRNA [2]; 18.75 nM oligonucleotide,+30%
same,Percent change of STAT3 expression in A549 cells using PPS 199,Human STAT3 mRNA [2]; 37.5 nM oligonucleotide,+27%
same,Percent change of STAT3 expression in A549 cells using PPS 199,Human STAT3 mRNA [2]; 75 nM oligonucleotide,+16%
same,Percent change of STAT3 expression in A549 cells using PPS 199,Human STAT3 mRNA [2]; 150 nM oligonucleotide,+27%
same,Percent change of STAT3 expression using PPS 199,Human STAT3 mRNA [3]; 18.75 nM oligonucleotide,+2%
same,Percent change of STAT3 expression using PPS 199,Human STAT3 mRNA [3]; 37.5 nM oligonucleotide,+7%
same,Percent change of STAT3 expression using PPS 199,Human STAT3 mRNA [3]; 75 nM oligonucleotide,+6%
same,Percent change of STAT3 expression using PPS 199,Human STAT3 mRNA [3]; 150 nM oligonucleotide,+8%
23177 (antisense eA*eA*eA*eA*eA*dG*dT*dC*dC*dG*dC*dT*dG*dA*dT*eT*eG*e[5mC]*e[5mC]*e[5mC]) [compound 23177],% Cell Proliferation,BCL1 cells; dose 10 nM,117.0%
same,% Cell Inhibition,BCL1 cells; dose 15 nM,0.3%
same,% Cell Proliferation,BCL1 cells; dose 15 nM,99.7%
same,% Cell Proliferation,BCL1 cells; dose 20 nM,107.0%
same,% protein Expression,Mouse STAT3 protein; dose 10 nM,75.1%
same,% protein Inhibition,Mouse STAT3 protein; dose 10 nM,24.9%
same,% protein Expression,Mouse STAT3 protein; dose 15 nM,67.6%
same,% protein Inhibition,Mouse STAT3 protein; dose 15 nM,32.4%
same,% protein Expression,Mouse STAT3 protein; dose 20 nM,62.6%
same,% protein Inhibition,Mouse STAT3 protein; dose 20 nM,37.4%
same,% IgM Expression,[4]; dose 5 nM,110.0%
same,% IgM Expression,[4]; dose 15 nM,80.8%
same,% IgM Inhibition,[4]; dose 15 nM,19.2%
"129698 (antisense TTTGATCGAGGTTAGCCGTG; listed as DNA, chemistry not given here) [compound 129698]",Percent change in STAT3 mRNA expression in A549 cells by duplex antisense compounds,Human STAT3 mRNA [5]; 50 nM oligonucleotide,+41%
same,Percent change in STAT3 mRNA expression in A549 cells by duplex antisense compounds,Human STAT3 mRNA [5]; 100 nM oligonucleotide,+42%
same,Percent change in STAT3 mRNA expression in A549 cells by duplex antisense compounds,Human STAT3 mRNA [5]; 200 nM oligonucleotide,+1%
same,Percent change in STAT3 mRNA expression in A549 cells by duplex antisense compounds,Human STAT3 mRNA [5]; 400 nM oligonucleotide,+22%
"AAAAAGAGGCCTGATTGCCC (listed as DNA, chemistry not given here) [ISIS 28084, reference compound]",cell number,"Mouse B16 melanoma cells; 200 nM, Expt 1",10.2 × 10^5
same,cell number,"Mouse B16 melanoma cells; 200 nM, Expt 2",5.0 × 10^5
same,cell number,"Mouse B16 melanoma cells; 200 nM, Expt 3",3.5 × 10^5
same,cell number,"Mouse B16 melanoma cells; 300 nM, Expt 2",9.1 × 10^5
same,cell number,"Mouse B16 melanoma cells; 300 nM, Expt 3",3.3 × 10^5
"106734 (CATTCTTGGGATTGTTGGTC; all C 5-methyl, all phosphorothioate, sugars by position not given here; further chemistry not fully specified) [compound 106734]",Percent change of STAT3 expression in A549 cells using PPS 199,Human STAT3 mRNA [2]; 18.75 nM oligonucleotide,−2%
same,Percent change of STAT3 expression in A549 cells using PPS 199,Human STAT3 mRNA [2]; 37.5 nM oligonucleotide,−16%
same,Percent change of STAT3 expression in A549 cells using PPS 199,Human STAT3 mRNA [2]; 75 nM oligonucleotide,−56%
same,Percent change of STAT3 expression in A549 cells using PPS 199,Human STAT3 mRNA [2]; 150 nM oligonucleotide,−73%
same,Percent change in STAT3 mRNA expression in A549 cells by duplex antisense compounds,Human STAT3 mRNA [5]; 12.5 nM oligonucleotide,−5%
same,Percent change in STAT3 mRNA expression in A549 cells by duplex antisense compounds,Human STAT3 mRNA [5]; 25 nM oligonucleotide,−5%
same,Percent change in STAT3 mRNA expression in A549 cells by duplex antisense compounds,Human STAT3 mRNA [5]; 50 nM oligonucleotide,−40%
same,Percent change in STAT3 mRNA expression in A549 cells by duplex antisense compounds,Human STAT3 mRNA [5]; 100 nM oligonucleotide,−56%
same,Percent change in STAT3 mRNA expression in A549 cells by duplex antisense compounds,Human STAT3 mRNA [5]; 200 nM oligonucleotide,−67%
same,Percent change in STAT3 mRNA expression in A549 cells by duplex antisense compounds,Human STAT3 mRNA [5]; 400 nM oligonucleotide,−77%
